According to ChEMBL document CHEMBL4418283, “Fluorinated lysyl oxidase-like 2 inhibitors and uses thereof” (2017):
Activity calls are given as the source filed them. The rule behind the calls is not given here.

Tests used:
Mus musculus [1] = experiment: Antifibrotic activity in C57BL/6 mouse model of bleomycin-induced lung fibrosis assessed as reduction in cross linked collagen level in lung at 60 mg/kg, po treated 7 to 14 days after bleomycin injection and measured after 14 to 28 days by Masson's trichrome staining based assay; type: functional, organism-based
Mus musculus [2] = experiment: Antifibrotic activity in C57BL/6 mouse model of bleomycin-induced lung fibrosis assessed as reduction in alpha smooth muscle actin level in lung at 60 mg/kg, po treated 7 to 14 days after bleomycin injection and measured after 14 to 28 days by immunohistochemistry analysis; type: functional, organism-based
Mus musculus [3] = experiment: Antifibrotic activity in C57BL/6 mouse model of bleomycin-induced lung fibrosis assessed as reduction in hydroxyproline in lung homogenates at 60 mg/kg, po treated 7 to 14 days after bleomycin injection and measured after 14 to 28 days by chloramine T and Erlich's solution based assay; type: functional, organism-based
Mus musculus [4] = experiment: Antifibrotic activity in C57BL/6 mouse model of bleomycin-induced lung fibrosis assessed as reduction in cross linked collagen level in lung at 60 mg/kg, po pre-treated 1 hr to 1 day before bleomycin injection and measured after 14 to 28 days by Masson's trichrome staining based assay; type: functional, organism-based
Mus musculus [5] = experiment: Antifibrotic activity in C57BL/6 mouse model of bleomycin-induced lung fibrosis assessed as reduction in collagen level in lung at 60 mg/kg, po treated 7 to 14 days after bleomycin injection and measured after 14 to 28 days by hydroxyproline assay; type: functional, organism-based
Mus musculus [6] = experiment: Antifibrotic activity in C57BL/6 mouse model of bleomycin-induced lung fibrosis assessed as reduction in cross linked collagen level in lung at 60 mg/kg, po pre-treated 1 hr to 1 day before bleomycin injection and measured after 14 to 28 days by Picro-Sirius staining based assay; type: functional, organism-based
Mus musculus [7] = experiment: Antifibrotic activity in C57BL/6 mouse model of bleomycin-induced lung fibrosis assessed as reduction in alpha smooth muscle actin level in lung at 60 mg/kg, po pre-treated 1 hr to 1 day before bleomycin injection and measured after 14 to 28 days by immunohistochemistry analysis; type: functional, organism-based
Mus musculus [8] = experiment: Antifibrotic activity in C57BL/6 mouse model of bleomycin-induced lung fibrosis assessed as reduction in collagen level in lung at 60 mg/kg, po pre-treated 1 hr to 1 day before bleomycin injection and measured after 14 to 28 days by hydroxyproline assay; type: functional, organism-based
Mus musculus [9] = experiment: Antifibrotic activity in C57BL/6 mouse model of bleomycin-induced lung fibrosis assessed as reduction in cross linked collagen level in lung at 60 mg/kg, po treated 7 to 14 days after bleomycin injection and measured after 14 to 28 days by Picro-Sirius staining based assay; type: functional, organism-based
Mus musculus [10] = experiment: Antifibrotic activity in C57BL/6 mouse model of bleomycin-induced lung fibrosis assessed as reduction in hydroxyproline in lung homogenates at 60 mg/kg, po pre-treated 1 hr to 1 day before bleomycin injection and measured after 14 to 28 days by chloramine T and Erlich's solution based assay; type: functional, organism-based
Lysyl oxidase homolog 2 = target: T1, Lysyl oxidase homolog 2 (Homo sapiens, UniProt Q9Y4K0); experiment: Inhibition of human LOXL2 expressed in CHO cells assessed as reduction in amine oxidase activity incubated for 2 hrs by Amplex red based fluorescence assay; type: cell-based
T1 sequence (Q9Y4K0 whole entry): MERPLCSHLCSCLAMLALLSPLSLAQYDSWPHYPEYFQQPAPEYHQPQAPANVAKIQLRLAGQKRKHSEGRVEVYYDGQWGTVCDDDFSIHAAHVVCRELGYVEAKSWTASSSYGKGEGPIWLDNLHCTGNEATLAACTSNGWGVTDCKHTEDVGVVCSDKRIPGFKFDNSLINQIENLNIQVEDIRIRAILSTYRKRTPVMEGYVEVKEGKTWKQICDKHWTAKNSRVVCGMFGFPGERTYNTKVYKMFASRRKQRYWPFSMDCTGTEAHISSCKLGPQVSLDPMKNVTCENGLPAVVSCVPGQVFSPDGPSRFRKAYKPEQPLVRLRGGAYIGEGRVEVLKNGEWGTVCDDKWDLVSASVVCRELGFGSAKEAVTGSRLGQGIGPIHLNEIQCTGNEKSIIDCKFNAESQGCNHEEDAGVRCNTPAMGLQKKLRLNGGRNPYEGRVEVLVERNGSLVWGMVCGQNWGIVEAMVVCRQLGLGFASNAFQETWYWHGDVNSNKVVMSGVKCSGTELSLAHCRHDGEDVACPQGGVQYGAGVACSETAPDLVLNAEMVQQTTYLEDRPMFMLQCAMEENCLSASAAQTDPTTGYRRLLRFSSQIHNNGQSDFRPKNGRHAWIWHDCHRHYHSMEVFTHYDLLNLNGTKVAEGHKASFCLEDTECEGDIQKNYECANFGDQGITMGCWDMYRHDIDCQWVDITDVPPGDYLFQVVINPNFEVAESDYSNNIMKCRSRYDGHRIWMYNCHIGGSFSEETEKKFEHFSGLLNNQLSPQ

Mus musculus [11] = experiment: Antifibrotic activity in COL4A3 deficient mouse A1port model of kidney fibrosis assessed as effect on CD45 protein expression at 30 mg/kg, po dosed during 2 to 3 days of age and measured at 7 to 9 weeks of age by immunohistochemical analysis; type: functional, organism-based
Mus musculus [12] = experiment: Antifibrotic activity in COL4A3 deficient mouse A1port model of kidney fibrosis assessed as effect on laminin a5 protein expression at 30 mg/kg, po dosed during 2 to 3 days of age and measured at 7 to 9 weeks of age by immunohistochemical analysis; type: functional, organism-based
Mus musculus [13] = experiment: Antifibrotic activity in COL4A3 deficient mouse A1port model of kidney fibrosis assessed as effect on MCP1 gene expression at 30 mg/kg, po dosed during 2 to 3 days of age and measured at 7 to 9 weeks of age by RT-PCR analysis; type: functional, organism-based
Mus musculus [14] = experiment: Antifibrotic activity in COL4A3 deficient mouse A1port model of kidney fibrosis assessed as effect on smooth muscle actin protein expression at 30 mg/kg, po dosed during 2 to 3 days of age and measured at 7 to 9 weeks of age by immunohistochemical analysis; type: functional, organism-based
Mus musculus [15] = experiment: Antifibrotic activity in COL4A3 deficient mouse A1port model of kidney fibrosis assessed as effect on collagen 1 protein expression at 30 mg/kg, po dosed during 2 to 3 days of age and measured at 7 to 9 weeks of age by immunohistochemical analysis; type: functional, organism-based
Mus musculus [16] = experiment: Antifibrotic activity in COL4A3 deficient mouse A1port model of kidney fibrosis assessed as effect on MMP12 gene expression at 30 mg/kg, po dosed during 2 to 3 days of age and measured at 7 to 9 weeks of age by RT-PCR analysis; type: functional, organism-based
Mus musculus [17] = experiment: Antifibrotic activity in COL4A3 deficient mouse A1port model of kidney fibrosis assessed as effect on MMP2 gene expression at 30 mg/kg, po dosed during 2 to 3 days of age and measured at 7 to 9 weeks of age by RT-PCR analysis; type: functional, organism-based
Mus musculus [18] = experiment: Antifibrotic activity in COL4A3 deficient mouse A1port model of kidney fibrosis assessed as effect on TGFbeta1 gene expression at 30 mg/kg, po dosed during 2 to 3 days of age and measured at 7 to 9 weeks of age by RT-PCR analysis; type: functional, organism-based
Mus musculus [19] = experiment: Antifibrotic activity in COL4A3 deficient mouse A1port model of kidney fibrosis assessed as effect on IL6 gene expression at 30 mg/kg, po dosed during 2 to 3 days of age and measured at 7 to 9 weeks of age by RT-PCR analysis; type: functional, organism-based
Mus musculus [20] = experiment: Antifibrotic activity in COL4A3 deficient mouse A1port model of kidney fibrosis assessed as effect on albinuria level at 30 mg/kg, po dosed during 2 to 3 days of age and measured at 7 to 9 weeks of age; type: functional, organism-based
Mus musculus [21] = experiment: Antifibrotic activity in COL4A3 deficient mouse A1port model of kidney fibrosis assessed as effect on fibronectin protein expression at 30 mg/kg, po dosed during 2 to 3 days of age and measured at 7 to 9 weeks of age by immunohistochemical analysis; type: functional, organism-based
Mus musculus [22] = experiment: Antifibrotic activity in COL4A3 deficient mouse A1port model of kidney fibrosis assessed as effect on collagen-1 protein expression at 30 mg/kg, po dosed during 2 to 3 days of age and measured at 7 to 9 weeks of age by immunohistochemical analysis; type: functional, organism-based
Mus musculus [23] = experiment: Antifibrotic activity in COL4A3 deficient mouse A1port model of kidney fibrosis assessed as effect on WT1 protein expression at 30 mg/kg, po dosed during 2 to 3 days of age and measured at 7 to 9 weeks of age by immunohistochemical analysis; type: functional, organism-based
Mus musculus [24] = experiment: Antifibrotic activity in COL4A3 deficient mouse A1port model of kidney fibrosis assessed as effect on BUN level at 30 mg/kg, po dosed during 2 to 3 days of age and measured at 7 to 9 weeks of age; type: functional, organism-based
Mus musculus [25] = experiment: Antifibrotic activity in COL4A3 deficient mouse A1port model of kidney fibrosis assessed as effect on MMP10 gene expression at 30 mg/kg, po dosed during 2 to 3 days of age and measured at 7 to 9 weeks of age by RT-PCR analysis; type: functional, organism-based
Mus musculus [26] = experiment: Antifibrotic activity in COL4A3 deficient mouse A1port model of kidney fibrosis assessed as effect on MMP9 gene expression at 30 mg/kg, po dosed during 2 to 3 days of age and measured at 7 to 9 weeks of age by RT-PCR analysis; type: functional, organism-based
Mus musculus [27] = experiment: Antifibrotic activity in COL4A3 deficient mouse A1port model of kidney fibrosis assessed as effect on integrin alpha8 protein expression at 30 mg/kg, po dosed during 2 to 3 days of age and measured at 7 to 9 weeks of age by immunohistochemical analysis; type: functional, organism-based
Mus musculus [28] = experiment: Antifibrotic activity in COL4A3 deficient mouse A1port model of kidney fibrosis assessed as effect on CTGF gene expression at 30 mg/kg, po dosed during 2 to 3 days of age and measured at 7 to 9 weeks of age by RT-PCR analysis; type: functional, organism-based

SMILES	Activity (Mus musculus [1])	Activity (Mus musculus [2])	Activity (Mus musculus [3])	Activity (Mus musculus [4])	Activity (Mus musculus [5])	Activity (Mus musculus [6])	Activity (Mus musculus [7])	Activity (Mus musculus [8])	Activity (Mus musculus [9])	Activity (Mus musculus [10])	further results
NCc1cc(Oc2cccc(C(=O)N3C[C@H](O)[C@@H](F)C3)c2)nc(C(F)(F)F)c1 (racemic)	Active	Active	Active	Active	Active	Active	Active	Active	Active	Active	–
CC(C)(C)OC(=O)N1CCN(C(=O)Cn2ccc3c(Oc4cc(CN)cc(C(F)(F)F)n4)cccc32)CC1	–	–	–	–	–	–	–	–	–	–	IC50 (Lysyl oxidase homolog 2): < 300 nM
NCc1cc(Oc2cccc3c2CCC(=O)N3)nc(C(F)(F)F)c1	–	–	–	Active	–	Active	Active	Active	–	Active	–
NCc1cc(Oc2cccc(C(=O)Nc3ccccc3)c2)nc(C(F)(F)F)c1	–	–	–	Active	–	Active	Active	Active	–	Active	–
NCc1cc(Oc2cccc(C(=O)N3C[C@@H](O)[C@H](F)C3)c2)nc(C(F)(F)F)c1	Active	Active	Active	Active	Active	Active	Active	Active	Active	Active	Activity (Mus musculus [11]): Active; Activity (Mus musculus [12]): Active; Activity (Mus musculus [13]): Active; Activity (Mus musculus [14]): Active; Activity (Mus musculus [15]): Active; Activity (Mus musculus [16]): Active; Activity (Mus musculus [17]): Active; Activity (Mus musculus [18]): Active; Activity (Mus musculus [19]): Active; Activity (Mus musculus [20]): Active; Activity (Mus musculus [21]): Active; Activity (Mus musculus [22]): Active; Activity (Mus musculus [23]): Active; Activity (Mus musculus [24]): Active; Activity (Mus musculus [25]): Active; Activity (Mus musculus [26]): Active; Activity (Mus musculus [27]): Active; Activity (Mus musculus [28]): Active
CS(=O)(=O)CCNC(=O)c1cccc(Oc2cc(CN)cc(C(F)(F)F)n2)c1	–	–	–	Active	–	Active	Active	Active	–	Active	–
NCc1cc(Oc2cccc(C(=O)N3C[C@H](O)[C@@H](F)C3)c2)nc(C(F)(F)F)c1 (relative stereo)	Active	Active	Active	Active	Active	Active	Active	Active	Active	Active	–
NCc1cc(Oc2cccc(C(=O)NCCn3cnnn3)c2)nc(C(F)(F)F)c1	–	–	–	Active	–	Active	Active	Active	–	Active	–
NCc1cc(O[C@@H]2CCCN(C(=O)Nc3ccccc3)C2)nc(C(F)(F)F)c1	–	–	–	–	–	–	–	–	–	–	IC50 (Lysyl oxidase homolog 2): 300 to 1000 nM
